Our source for the IC50 and melting point values is US9290465B2, “Substituted isoxazole amine compounds as inhibitors of SCD1” (Hoffmann-La Roche Inc., priority 2012, dated 2016).

Each structure is given as a SMILES string. Structures can show the parent of a compound that is named as a salt.

The target of the first series is T1, SCD1 (Mus musculus, UniProt P13516).
T1 construct: Mouse liver microsomes, prepared from mice fed a high-carbohydrate diet, were a source of the SCD; from tissue; host or cells: mouse liver microsomes (mice fed a high-carbohydrate diet)
T1 sequence (P13516 1-355): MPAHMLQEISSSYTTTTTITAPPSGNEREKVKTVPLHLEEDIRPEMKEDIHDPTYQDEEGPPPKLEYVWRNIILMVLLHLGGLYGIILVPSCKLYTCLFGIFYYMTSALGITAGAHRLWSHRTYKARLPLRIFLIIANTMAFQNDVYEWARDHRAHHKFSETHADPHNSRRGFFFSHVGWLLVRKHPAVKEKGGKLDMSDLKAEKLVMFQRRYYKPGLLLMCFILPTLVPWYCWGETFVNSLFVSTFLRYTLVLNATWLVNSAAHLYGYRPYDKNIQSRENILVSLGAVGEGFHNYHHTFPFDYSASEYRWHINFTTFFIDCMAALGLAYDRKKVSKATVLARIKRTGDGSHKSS
The series can be described thus: SCD assay: release of tritiated water from desaturation of 9,10-3H-stearoyl CoA, mouse liver microsomes. In kind it is biochemical. The settings on record: mouse liver microsomes as SCD source; 300 nM (9,10) 3H-stearoyl CoA; 25 minutes at rt; read-out: IC50 (nM), in vitro inhibition of SCD1. An excerpt:
Stearoyl CoA desaturase activity was monitored by a modification of the acyl carrier protein assay described by B. R. Talamo and K. Bloch in Anal. Biochem. 1968, 29, 300-304. The SCD assay monitors the release of tritiated water from the desaturation of 9,10-^3H-stearoyl CoA.
Mouse liver microsomes, prepared from mice fed a high-carbohydrate diet, were a source of the SCD and cyt b5 and cyt b5 reductase, necessary accessory proteins for the coupled reaction. Reaction mixtures for compound titrations contained 50 mM Tris HCl pH 7.5, 100 mM NaCl, 0.165 mg/mL BSA, 2.4% DMSO, 1 mM NADH, 0.03% T-20, and 300 nM (9,10) ^3H-stearoyl CoA (Perkin-Elmer). Reactions were initiated upon the addition of 4 ug/mL SCD microsomes. Incubations were terminated after 25 minutes at rt with cold 6% TCA. After standing 10 minutes at 4° C., samples were centrifuged 15 minutes at 4000 rpm to pellet precipitated protein. Supernatants were added to microtiter plates containing suspensions of activated charcoal (Darco G-60, Fisher Scientific) and mixed by inversion. Plates were then centrifuged to separate ^3H—H2O product from charcoal-bound reactants. Supernatants were quantitated in a Perkin Elmer Topcount 384 after solubilization in ScintiSafe Plus 50% (Fisher Scientific).
Inhibition (%) of SCD activity by compounds was calculated according to the following formula: % Inhibition=100*[1−(CPMsample−CPMblank)/(CPMtotal−CPMblank)].
With `Nc1conc1-c1ccc(OCc2ccc(F)cc2)cc1` [Example 2, 3-[4-(4-Fluoro-benzyloxy)-phenyl]-isoxazol-4-ylamine], the IC50 is 612 nM. Still for that read-out and setting: to `Nc1conc1-c1ccc(OCc2ccccc2)cc1` [Example 3, 3-(4-Benzyloxy-phenyl)-isoxazol-4-ylamine] belongs 464 nM. On the same count and under the same terms, to `COc1ccc(COc2ccc(-c3nocc3N)cc2)cc1` [Example 4, 3-[4-(4-Methoxy-benzyloxy)-phenyl]-isoxazol-4-ylamine] belongs 104 nM. Turning to `COC(=O)c1ccc(COc2ccc(-c3nocc3N)cc2)cc1` [Example 5, 4-[4-(4-Amino-isoxazol-3-yl)-phenoxymethyl]-benzoic acid methyl ester hydrochloride], the IC50 amounted to 152 nM.

`CS(=O)(=O)c1ccc(COc2ccc(-c3nocc3N)cc2)cc1` [Example 6, 3-[4-(4-Methanesulfonyl-benzyloxy)-phenyl]-isoxazol-4-ylamine]: the IC50 is 40 nM. Turning to `CS(=O)(=O)c1ccc(NCc2ccc(-c3nocc3N)cc2)cc1` [Example 7, 3-{4-[(4-methanesulfonyl-phenylamino)-methyl]-phenyl}-isoxazol-4-ylamine hydrochloride], the IC50 was determined as 817 nM. The same measure, in the same setting: to `CS(=O)(=O)c1ccc(COc2ccc(-c3nocc3N)cc2)c(Cl)c1` [Example 8, 3-[4-(2-Chloro-4-methanesulfonyl-benzyloxy)-phenyl]-isoxazol-4-ylamine] belongs 191 nM.

Take `CS(=O)(=O)c1ccc(CCc2ccc(-c3nocc3N)cc2)cc1` [Example 9, 3-{4-[2-(4-Methanesulfonyl-phenyl)-ethyl]-phenyl}-isoxazol-4-ylamine]: the IC50 is 280 nM. On the same count and under the same terms, for `Nc1conc1-c1ccc(OCCc2ccccc2)cc1` [Example 10] the value was 1930 nM; for `Nc1conc1-c1ccc(OCCCc2ccccc2)cc1` [Example 11, 3-[4-(3-Phenyl-propoxy)-phenyl]-isoxazol-4-ylamine], 372 nM; for `CS(=O)(=O)c1ccc(COc2ccc(-c3nocc3N)nc2)cc1` [Example 12, 3-[5-(4-Methanesulfonyl-benzyloxy)-pyridin-2-yl]-isoxazol-4-ylamine], 466 nM. Turning to `Cc1onc(-c2ccc(OCc3ccc(S(C)(=O)=O)cc3)cc2)c1N` [Example 13, 3-[4-(4-Methanesulfonyl-benzyloxy)-phenyl]-5-methyl-isoxazol-4-ylamine], the IC50 was 864 nM. Turning to `Nc1conc1-c1ccc(OCc2cccnc2)cc1` [Example 14, 3-[4-(Pyridin-3-ylmethoxy)-phenyl]-isoxazol-4-ylamine], the IC50 worked out at 2200 nM. Still for that read-out and setting: to `Nc1conc1-c1ccc(OCC(=O)c2ccccc2)cc1` [Example 15, 2-[4-(4-Amino-isoxazol-3-yl)-phenoxy]-1-phenyl-ethanone hydrochloride] belongs 395 nM; to `Nc1conc1-c1ccc(OCc2ccc([N+](=O)[O-])cc2)cc1` [Example 16, 3-[4-(4-Nitro-benzyloxy)-phenyl]-isoxazol-4-ylamine hydrochloride], 264 nM; to `N#Cc1ccc(COc2ccc(-c3nocc3N)cc2)cc1` [Example 17, 4-[4-(4-Amino-isoxazol-3-yl)-phenoxymethyl]-benzonitrile hydrochloride], 603 nM. The same measure, in the same setting: to `N#Cc1cccc(COc2ccc(-c3nocc3N)cc2)c1` [Example 18, 3-[4-(4-Amino-isoxazol-3-yl)-phenoxymethyl]-benzonitrile hydrochloride] belongs 315 nM.

For the compound `Nc1conc1-c1ccc(OCc2ccc(C(F)(F)F)cc2)cc1` [Example 19, 3-[4-(4-Trifluoromethyl-benzyloxy)-phenyl]-isoxazol-4-ylamine hydrochloride], the IC50 came to 391 nM.

As for `Nc1conc1-c1ccc(OCc2ccc(OC(F)(F)F)cc2)cc1` [Example 20, 3-[4-(4-Trifluoromethoxy-benzyloxy)-phenyl]-isoxazol-4-ylamine hydrochloride], the IC50 was 135 nM. Still for that read-out and setting: to `Nc1conc1-c1ccc(OCc2cc(F)cc(F)c2)cc1` [Example 21, 3-[4-(3,5-Difluoro-benzyloxy)-phenyl]-isoxazol-4-ylamine hydrochloride] belongs 257 nM. On the same count and under the same terms, to `Nc1conc1-c1ccc(OCc2ccccc2Cl)cc1` [Example 22, 3-[4-(2-Chloro-benzyloxy)-phenyl]-isoxazol-4-ylamine hydrochloride] belongs 1740 nM; to `Cc1ccc(COc2ccc(-c3nocc3N)cc2)cc1C` [Example 23, 3-[4-(3,4-Dimethyl-benzyloxy)-phenyl]-isoxazol-4-ylamine hydrochloride], 148 nM; to `Nc1conc1-c1ccc(OCc2cccc(OC(F)(F)F)c2)cc1` [Example 24, 3-[4-(3-Trifluoromethoxy-benzyloxy)-phenyl]-isoxazol-4-ylamine hydrochloride], 1350 nM.

As to `Nc1conc1-c1ccc(OCc2ccc(Cl)cc2)cc1` [Example 25, 3-[4-(4-Chloro-benzyloxy)-phenyl]-isoxazol-4-ylamine hydrochloride], the IC50 amounted to 246 nM.

As for `Nc1conc1-c1ccc(OCc2ccc(Cl)c(Cl)c2)cc1` [Example 26, 3-[4-(3,4-Dichloro-benzyloxy)-phenyl]-isoxazol-4-ylamine hydrochloride], the IC50 came to 162 nM. Still for that read-out and setting: to `Cc1ccc(COc2ccc(-c3nocc3N)cc2)cc1` [Example 27, 3-[4-(4-Methyl-benzyloxy)-phenyl]-isoxazol-4-ylamine hydrochloride] belongs 196 nM; to `Nc1conc1-c1ccc(OCc2ccc(I)cc2)cc1` [Example 28, 3-[4-(4-Iodo-benzyloxy)-phenyl]-isoxazol-4-ylamine], 126 nM; to `CC(C)c1ccc(COc2ccc(-c3nocc3N)cc2)cc1` [Example 29, 3-[4-(4-Isopropyl-benzyloxy)-phenyl]-isoxazol-4-ylamine], 161 nM.

On to `CCS(=O)(=O)c1ccc(COc2ccc(-c3nocc3N)cc2)cc1` [Example 31, 3-[4-(4-Ethanesulfonyl-benzyloxy)-phenyl]-isoxazol-4-ylamine], for which the IC50 came to 65 nM.

As for `Nc1conc1-c1ccc(OCc2ccc3c(c2)CCS3(=O)=O)cc1` [Example 32, 3-[4-(1,1-Dioxo-2,3-dihydro-1H-1lambda*6*-benzo[b]thiophen-5-ylmethoxy)-phenyl]-isoxazol-4-ylamine], the IC50 turned out to be 259 nM. Still for that read-out and setting: to `Nc1conc1-c1ccc(OCc2ccc3c(c2)C=CS3(=O)=O)cc1` [Example 33, 3-[4-(1,1-Dioxo-1H-1lambda*6*-benzo[b]thiophen-5-ylmethoxy)-phenyl]-isoxazol-4-ylamine] belongs 411 nM; to `Nc1conc1-c1ccc(OCc2ccc(S(=O)(=O)c3ccccc3)cc2)cc1` [Example 34, 3-[4-(4-Benzenesulfonyl-benzyloxy)-phenyl]-isoxazol-4-ylamine], 673 nM; to `CSc1ccc(COc2ccc(-c3nocc3N)cc2)cc1` [Example 35, 3-[4-(4-Methylsulfanyl-benzyloxy)-phenyl]-isoxazol-4-ylamine hydrochloride], 99 nM. On the same count and under the same terms, to `Nc1conc1-c1ccc(OCc2ccc(SC(F)(F)F)cc2)cc1` [Example 36, 3-[4-(4-Trifluoromethylsulfanyl-benzyloxy)-phenyl]-isoxazol-4-ylamine hydrochloride] belongs 51 nM.

Tested on in another series: not given
Assay: not given
Details: not given
`Nc1conc1-c1ccc(OCc2ccc(Cl)cc2)cc1` (as salt: hydrochloride) [Example 25, 3-[4-(4-Chloro-benzyloxy)-phenyl]-isoxazol-4-ylamine hydrochloride] had a melting point of 174 to 176 °C.

Compound `COc1ccc(COc2ccc(-c3nocc3N)cc2)cc1` [Example 4, 3-[4-(4-Methoxy-benzyloxy)-phenyl]-isoxazol-4-ylamine] displayed a melting point of 92 to 98 °C.
